# Assay results reported in patent US20020031795A1, “Nitrocoumarins for detecting all micro-organisms” (priority 1998, published 2002).
# Key:
# [1] = tested on: five different species of Enterobacteriaceae; assay: Reduction by wild strains of five species of Enterobacteriaceae (summary); format: cell-based; conditions: 0.17 mmol/l
# Method: This experiment was designed to investigate whether or not it would be possible to detect Enterobacteriaceae other than E. coli using 7-nitrocoumarin-3-carboxylic acid. The conditions for this experiment were similar to those described for the first experiment (section A).
# Five wild strains belonging to the species Citrobacter diversus, Enterobacter agglomerans, Hafnia alvei, Morganella morganii and Shigella sonnei were tested
# [2] = tested on: E. coli (NCTC strain 10418); assay: Fluorescent signal generated by E. coli reducing nitrocoumarins (nitroaryl reductase activity); format: cell-based, Escherichia coli
# Method: A sample of the 7-nitrocoumarin derivative is dissolved in 4 ml of hot, distilled water. The mass dissolved to make the stock solution is such that the final concentration of the compound in the assay is 0.105 mmol/l. This solution is added to 96 ml of Mueller-Hinton broth and the mixture is sterile-filtered.
# The E. coli was grown for 24 hours at 35° C. on Columbia agar supplemented with sheep blood. The bacteria were then resuspended in sterile, distilled water and their density was adjusted to 0.5 on the MacFarland scale (i.e. about 10^8 cells/ml). This suspension was then diluted 100-fold in sterile Mueller-Hinton broth (i.e. to a final density of about 10^6 cells/ml).
# Fifty microliters of each nitrocoumarin solution plus 50 μl of bacterial suspension were then added to the wells of a microtiter plate. The plates were incubated at 35° C. and the optical density and fluorescence of each well was read every 30 min for a total of 4 hours. Optical density (690 nm) readings were made using an Anthos 2001 spectrophotometer (Labtech International Limited), and fluorescence (excitation at 365 nm and emission at 440 nm) readings were made on a Biolite F1 2001 fluorometer (Labtech International Limited).
# The effect of the concentration of 7-nitrocoumarin-3-carboxylic acid on the sensitivity of the assay to detect E. coli (NCTC strain 10418) was investigated at concentrations of the indicator ranging from 0 to 0.262 mmol/l. All other conditions were identical to those described in section A above.
# [3] = tested on: Acinetobacter haemolyticus (ATCC 17906); assay: Fluorescence after 24 hours, serial dilutions in Trypticase Soy broth; format: cell-based
# Method: This experiment was performed to test 7-nitrocoumarin-3-carboxylic acid on sixteen (16) different types of microorganism, including one yeast species.
# A mass of 10 mg of the indicator was dissolved in 4 ml of hot, distilled water and this solution was then added to 96 ml of Trypticase Soy broth. The resultant mixture was sterile-filtered.
# All the microorganisms were grown for 24 hours in Trypticase Soy broth at 35° C. Each culture was then diluted 1,000-fold in Trypticase Soy broth and then serial 10-fold dilutions were made in more Trypticase Soy broth until the test aliquot contained no more microbial cells.
# The resultant dilutions ranged from 10^−3 to 10^−13.
# Fifty microliters of each dilution plus 50 μl of Trypticase Soy broth were added to wells of a microtiter plate with or without 7-nitrocoumarin-3-carboxylic acid.
# The plates were read (T zero) and then incubated at 35° C. before being read again after 24 hours. Two different readings were made at each time point:
# of the fluorescence (excitation at 365 nm and emission at 440 nm), using a Biolite F1 2001 fluorometer (Labtech International Limited), for wells containing 7-nitrocoumarin-3-carboxylic acid.
compound,measurement,setting,value
O=C(O)c1cc2ccc([N+](=O)[O-])cc2oc1=O [7-nitrocoumarin-3-carboxylic acid],Reduction by wild strains of five Enterobacteriaceae species (in words),[1],All the strains tested were found to be able to reduce this compound
same,Fluorescent signal,"[2]; 0.005 mmol/l, 0 min",0
same,Fluorescent signal,"[2]; 0.005 mmol/l, 30 min",−134
same,Fluorescent signal,"[2]; 0.005 mmol/l, 60 min",−164
same,Fluorescent signal,"[2]; 0.005 mmol/l, 90 min",−122
same,Fluorescent signal,"[2]; 0.005 mmol/l, 120 min",−94
same,Fluorescent signal,"[2]; 0.005 mmol/l, 150 min",−9
same,Fluorescent signal,"[2]; 0.005 mmol/l, 180 min",406
same,Fluorescent signal,"[2]; 0.005 mmol/l, 210 min",1307
same,Fluorescent signal,"[2]; 0.005 mmol/l, 240 min",2466
same,Fluorescent signal,"[2]; 0.013 mmol/l, 0 min",0
same,Fluorescent signal,"[2]; 0.013 mmol/l, 30 min",−113
same,Fluorescent signal,"[2]; 0.013 mmol/l, 60 min",−141
same,Fluorescent signal,"[2]; 0.013 mmol/l, 90 min",−76
same,Fluorescent signal,"[2]; 0.013 mmol/l, 120 min",−22
same,Fluorescent signal,"[2]; 0.013 mmol/l, 150 min",174
same,Fluorescent signal,"[2]; 0.013 mmol/l, 180 min",1068
same,Fluorescent signal,"[2]; 0.013 mmol/l, 210 min",3073
same,Fluorescent signal,"[2]; 0.013 mmol/l, 240 min",5902
same,Fluorescent signal,"[2]; 0.026 mmol/l, 0 min",0
same,Fluorescent signal,"[2]; 0.026 mmol/l, 30 min",−91
same,Fluorescent signal,"[2]; 0.026 mmol/l, 60 min",−110
same,Fluorescent signal,"[2]; 0.026 mmol/l, 90 min",−39
same,Fluorescent signal,"[2]; 0.026 mmol/l, 120 min",71
same,Fluorescent signal,"[2]; 0.026 mmol/l, 150 min",467
same,Fluorescent signal,"[2]; 0.026 mmol/l, 180 min",2311
same,Fluorescent signal,"[2]; 0.026 mmol/l, 210 min",6028
same,Fluorescent signal,"[2]; 0.026 mmol/l, 240 min",11387
same,Fluorescent signal,"[2]; 0.052 mmol/l, 0 min",0
same,Fluorescent signal,"[2]; 0.052 mmol/l, 30 min",−83
same,Fluorescent signal,"[2]; 0.052 mmol/l, 60 min",−76
same,Fluorescent signal,"[2]; 0.052 mmol/l, 90 min",33
same,Fluorescent signal,"[2]; 0.052 mmol/l, 120 min",241
same,Fluorescent signal,"[2]; 0.052 mmol/l, 150 min",861
same,Fluorescent signal,"[2]; 0.052 mmol/l, 180 min",4004
same,Fluorescent signal,"[2]; 0.052 mmol/l, 210 min",10584
same,Fluorescent signal,"[2]; 0.052 mmol/l, 240 min",19530
same,Fluorescent signal relative to that given by any of the other substrates,[2]; 0.105 mmol/l,more than twice as high
same,Fluorescent signal,"[2]; 0.105 mmol/l, 0 min",0
same,Fluorescent signal,"[2]; 0.105 mmol/l, 30 min",−67
same,Fluorescent signal,"[2]; 0.105 mmol/l, 60 min",4
same,Fluorescent signal,"[2]; 0.105 mmol/l, 90 min",181
same,Fluorescent signal,"[2]; 0.105 mmol/l, 120 min",586
same,Fluorescent signal,"[2]; 0.105 mmol/l, 150 min",1694
same,Fluorescent signal,"[2]; 0.105 mmol/l, 180 min",6724
same,Fluorescent signal,"[2]; 0.105 mmol/l, 210 min",17495
same,Fluorescent signal,"[2]; 0.105 mmol/l, 240 min",31314
same,Extent of reduction of the substrate (in words),"[2]; 0.105 mmol/l, end of the four-hour assay",reduced to a far greater extent than any of the other nitrocoumarins
same,Fluorescent signal,"[2]; 0.157 mmol/l, 0 min",0
same,Fluorescent signal,"[2]; 0.157 mmol/l, 30 min",−74
same,Fluorescent signal,"[2]; 0.157 mmol/l, 60 min",48
same,Fluorescent signal,"[2]; 0.157 mmol/l, 90 min",280
same,Fluorescent signal,"[2]; 0.157 mmol/l, 120 min",811
same,Fluorescent signal,"[2]; 0.157 mmol/l, 150 min",2231
same,Fluorescent signal,"[2]; 0.157 mmol/l, 180 min",8264
same,Fluorescent signal,"[2]; 0.157 mmol/l, 210 min",21022
same,Fluorescent signal,"[2]; 0.157 mmol/l, 240 min",36517
same,Fluorescent signal,"[2]; 0.210 mmol/l, 0 min",0
same,Fluorescent signal,"[2]; 0.210 mmol/l, 30 min",−6
same,Fluorescent signal,"[2]; 0.210 mmol/l, 60 min",88
same,Fluorescent signal,"[2]; 0.210 mmol/l, 90 min",354
same,Fluorescent signal,"[2]; 0.210 mmol/l, 120 min",979
same,Fluorescent signal,"[2]; 0.210 mmol/l, 150 min",2588
same,Fluorescent signal,"[2]; 0.210 mmol/l, 180 min",9000
same,Fluorescent signal,"[2]; 0.210 mmol/l, 210 min",21589
same,Fluorescent signal,"[2]; 0.210 mmol/l, 240 min",37823
same,Fluorescent signal,"[2]; 0.262 mmol/l, 0 min",0
same,Fluorescent signal,"[2]; 0.262 mmol/l, 30 min",3
same,Fluorescent signal,"[2]; 0.262 mmol/l, 60 min",131
same,Fluorescent signal,"[2]; 0.262 mmol/l, 90 min",446
same,Fluorescent signal,"[2]; 0.262 mmol/l, 120 min",1190
same,Fluorescent signal,"[2]; 0.262 mmol/l, 150 min",3037
same,Fluorescent signal,"[2]; 0.262 mmol/l, 180 min",9721
same,Fluorescent signal,"[2]; 0.262 mmol/l, 210 min",22066
same,Fluorescent signal,"[2]; 0.262 mmol/l, 240 min",37949
same,Fluorescence reading,[3]; dilution 10^−3,19231
same,Fluorescence reading,[3]; dilution 10^−4,17403
same,Fluorescence reading,[3]; dilution 10^−5,12614
same,Fluorescence reading,[3]; dilution 10^−6,9727
same,Fluorescence reading,[3]; dilution 10^−7,4236
same,Fluorescence reading,[3]; dilution 10^−8,1981
same,Fluorescence reading,[3]; dilution 10^−9,1938
same,Fluorescence reading,[3]; dilution 10^−10,2005
same,Fluorescence reading,[3]; dilution 10^−11,1947
same,Fluorescence reading,[3]; dilution 10^−12,1904
same,Fluorescence reading,[3]; dilution 10^−13,1938
